Laboratory results taken from patent US20250017889A1, “INHIBITORS OF P1B-TYPE ATPASES” (THE CURATORS OF THE UNIVERSITY OF MISSOURI, priority 2021, published 2025).

Experiments:
[1] = tested on: 4T1 breast cancer cells and LLC lung cancer cells; test: In vitro scratch assay of cell motility (gap closure); type: cell-based; settings: 10 μM
From the text: LOX activity is known to be important for the motility of cancer cells. In this assay, a gap (scratch) was created in a confluent monolayer of cells and closure of the gap in the presence or absence of MKV3 was monitored by video microscopy. […] Dashed lines indicate scratch starting points (12A and 12C). […] The requirement for ATP7A in cancer cell motility is consistent with its role in activation of lysyl oxidase enzymes.

[2] = tested on: wild type S. aureus (CopA and CopB); test: Growth of wild type methicillin-resistant Staphylococcus aureus; type: cell-based
Procedure: (§1) Methicillin-resistant Staphylococcus aureus (MRSA) is a human pathogen that expresses two Cu-transporting P1B-type ATPases, CopA and CopB, which are known to enhance the virulence of this bacterium. 19A illustrates CopA and CopB copper exporters at the plasma membrane of S. aureus. […] The growth of the ΔcopA/ΔcopB strain was inhibited by approximately 50% when copper alone (50 μM) was added to the culture medium.
(§2) Wild type MRSA expresses two copper-exporting P1B-type ATPases, CopA and CopB that are required for copper tolerance (FIG. 19A). […] The same experiment was performed using MRSA in which both CopA and CopB genes were deleted (ΔcopA/ΔcopB). Consistent with the known role of CopA and CopB in copper tolerance, the growth of the ΔcopA/ΔcopB strain was inhibited by approximately 50% when copper alone (50 μM) was added to the culture medium (FIG. 19C).

[3] = tested on: ΔcopA/ΔcopB strain of S. aureus; test: Growth of copper-sensitive ΔcopA/ΔcopB mutant strain of S. aureus; type: cell-based, Staphylococcus aureus; settings: MKV3 with copper 50 μM
Procedure: as §1, §2

ATP7B = target: T1, ATP7B (Homo sapiens, UniProt P35670); test: Microscale thermophoresis (MST) binding to GFP-ATP7B in HEK293 cell lysates; settings: MST analysis; read-out: affinity for ATP7B
T1 construct: expressed in transfected cells; host or cells: HEK293 (detergent-free lysate)
T1 sequence (P35670 1-1465): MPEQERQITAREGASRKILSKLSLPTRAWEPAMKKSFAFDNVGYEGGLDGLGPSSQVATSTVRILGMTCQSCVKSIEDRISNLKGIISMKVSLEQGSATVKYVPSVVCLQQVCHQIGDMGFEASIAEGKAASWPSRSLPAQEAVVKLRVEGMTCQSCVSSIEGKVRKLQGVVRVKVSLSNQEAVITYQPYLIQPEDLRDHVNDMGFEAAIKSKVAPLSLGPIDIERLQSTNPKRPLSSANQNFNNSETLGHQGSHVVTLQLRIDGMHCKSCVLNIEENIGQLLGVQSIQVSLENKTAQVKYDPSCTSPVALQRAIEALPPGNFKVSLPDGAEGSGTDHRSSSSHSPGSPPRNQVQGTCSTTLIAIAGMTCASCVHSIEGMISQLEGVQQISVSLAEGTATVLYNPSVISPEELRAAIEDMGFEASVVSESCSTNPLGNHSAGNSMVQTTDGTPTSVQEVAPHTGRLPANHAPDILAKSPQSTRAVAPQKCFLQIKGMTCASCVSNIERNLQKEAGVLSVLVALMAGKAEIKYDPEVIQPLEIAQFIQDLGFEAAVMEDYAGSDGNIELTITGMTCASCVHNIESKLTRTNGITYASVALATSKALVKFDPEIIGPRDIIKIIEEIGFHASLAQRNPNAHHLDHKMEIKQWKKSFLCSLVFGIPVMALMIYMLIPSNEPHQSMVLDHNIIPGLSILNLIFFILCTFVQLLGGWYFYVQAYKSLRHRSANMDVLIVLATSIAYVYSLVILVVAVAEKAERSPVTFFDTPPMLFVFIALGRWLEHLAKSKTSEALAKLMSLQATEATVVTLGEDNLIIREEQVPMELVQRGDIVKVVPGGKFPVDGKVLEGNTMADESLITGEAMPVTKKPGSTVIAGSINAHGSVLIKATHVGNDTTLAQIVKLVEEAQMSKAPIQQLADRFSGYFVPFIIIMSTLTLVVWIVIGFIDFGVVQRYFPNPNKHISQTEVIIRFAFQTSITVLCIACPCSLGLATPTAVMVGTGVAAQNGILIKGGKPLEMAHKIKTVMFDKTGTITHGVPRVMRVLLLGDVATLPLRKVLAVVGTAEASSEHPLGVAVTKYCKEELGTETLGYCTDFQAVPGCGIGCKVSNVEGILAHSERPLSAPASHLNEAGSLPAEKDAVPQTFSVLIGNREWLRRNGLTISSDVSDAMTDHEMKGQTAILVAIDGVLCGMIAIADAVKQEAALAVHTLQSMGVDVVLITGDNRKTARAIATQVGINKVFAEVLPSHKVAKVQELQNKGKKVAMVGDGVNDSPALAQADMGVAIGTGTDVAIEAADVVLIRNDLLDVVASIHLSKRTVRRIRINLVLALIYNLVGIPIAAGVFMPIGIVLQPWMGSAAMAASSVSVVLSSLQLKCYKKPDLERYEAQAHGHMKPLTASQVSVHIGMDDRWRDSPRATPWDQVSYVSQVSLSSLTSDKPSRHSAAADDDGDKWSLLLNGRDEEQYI
From the text: Coordinating residues D935 and E798 are predicted to bind copper during transport.

4T1 mammary cancer cells = test: Orthotopic 4T1 mammary tumor growth and lung metastasis in mice; type: in vivo, BALB/c mice
[4] = tested on: tyrosinase activity in B16 melanoma cells; test: Tyrosinase activity in wild type B16 melanoma cells (L-DOPA to DOPAchrome), proxy for ATP7A inhibition; type: cell-based
From the text: Tyrosinase is a cuproenzyme involved in melanogenesis that receives copper via ATP7A in the secretory pathway. […] Thus, reductions in tyrosinase activity in wild type B16 cells can be used as a proxy for inhibition of ATP7A. […]

[5] = tested on: Cu^S cells complemented with ATP7A; test: Copper toxicity in Cu^S cells complemented with ATP7A; type: cell-based; settings: 10 μM, 50% cytotoxic copper concentration
From the text: 8A illustrates a copper sensitive fibroblast cell line (Cu^S) generated by deleting genes encoding ATP7A, metallothionein-I (MT-I) and metallothionein-II (MT-II). Cu^S cells cannot be propagated in regular medium (DMEM) unless a copper chelator (BCS) is supplied to the medium.
Cu^S cell lines were derived that were complemented by either ATP7A, ATP7B or MT-II.

[6] = intravenous 50 mg/kg every Tuesday and Thursday for 3 weeks
[7] = subcutaneous 50 mg/kg every Monday, Wednesday and Friday for 3 weeks

N#CC(C(=O)Nc1cccc(C(F)(F)F)c1)C(=S)Nc1ccccc1Cl (centres unmarked) [MKV3]
rate of gap closure ([1]; 4T1 cells): significantly reduced | rate of gap closure ([1]; LLC cells): significantly reduced | sensitivity of wild type S. aureus to silver [2]: increases the sensitivity | growth of wild type S. aureus ([2]; MKV3 0.5 μM alone): not affected | growth of wild type S. aureus ([2]; MKV3 0.5 μM and copper 50 μM in combination): significant inhibition of growth | copper sensitivity in the ΔcopA/ΔcopB strain [3]: did not increase copper sensitivity | Kd (ATP7B): 76 nM | metastatic lung burden (4T1 mammary cancer cells; [6]): reduced | weights of 4T1 primary tumors (4T1 mammary cancer cells; [6]): reduced | lung metastasis (4T1 mammary cancer cells; [7]): significantly reduced | primary tumor growth (4T1 mammary cancer cells; [7]): significantly reduced | in situ tyrosinase activity ([4]; 5 μM, 24 h, wild type B16 melanoma cells): loss of tyrosinase activity | IC50 ([4]; Mus musculus, B16 cells): 2.96 ± 0.007 µM | copper toxicity [5]: enhanced copper toxicity
